Holding throughout (type): functional, organism-based
For assay [1], the system named is Rhizopus arrhizus. Kind of assay: Antifungal activity against Rhizopus oryzae 99-880 infected in diabetic ketoacidotic mouse assessed as mouse survival at 30 mg/kg/day, po administered 24 hrs post infection for 4 days.
Assay [2] relates to Rhizopus arrhizus. Kind of assay: Antifungal activity against Rhizopus oryzae 99-880 infected in diabetic ketoacidotic BALB/c mouse assessed as improved time to death at 60 mg/kg/day, po administered 24 hrs post infection for 4 days.
The subject of assay [3] is Rhizopus arrhizus. Briefly: Antifungal activity against Rhizopus oryzae 99-880 infected in neutropenic mouse assessed as reduction of fungal burden in kidneys at 60 mg/kg/day, po administered 8 hrs post infection for 3 days. The following applies: Kidney.
Assay [4] relates to Rhizopus arrhizus. Briefly: Antifungal activity against Rhizopus oryzae 99-880 infected in diabetic ketoacidotic mouse assessed as reduction of fungal burden in brain at 60 mg/kg/day, po administered 8 hrs post infection for 3 days.
Assay [5] has as its system Rhizopus arrhizus. Kind of assay: Antifungal activity against Rhizopus oryzae 99-880 infected in neutropenic mouse assessed as reduction of fungal burden in brain at 60 mg/kg/day, po administered 8 hrs post infection for 3 days.
Assay [6] concerns Rhizopus arrhizus. Kind of assay: Antifungal activity against Rhizopus oryzae 99-880 infected in diabetic ketoacidotic BALB/c mouse assessed as improved time to death at 10 mg/kg/day, po administered 24 hrs post infection for 4 days.
Assay [7] deals with Rhizopus arrhizus. Kind of assay: Antifungal activity against Rhizopus oryzae 99-880 infected in diabetic ketoacidotic mouse assessed as mouse survival at 60 mg/kg/day, po administered 24 hrs post infection for 4 days.
Assay [8] concerns Rhizopus arrhizus. Briefly: Antifungal activity against Rhizopus oryzae 99-880 infected in diabetic ketoacidotic BALB/c mouse assessed as improved time to death at 30 mg/kg/day, po administered 24 hrs post infection for 4 days.
In assay [9] the test system is Rhizopus arrhizus. Briefly: Antifungal activity against Rhizopus oryzae 99-880 infected in neutropenic BALB/c mouse assessed as improved time to death at 60 mg/kg/day, po administered 24 hrs post infection for 4 days.
Assay [10] concerns Rhizopus arrhizus. Briefly: Antifungal activity against Rhizopus oryzae 99-880 infected in diabetic ketoacidotic mouse assessed as mouse survival at 10 mg/kg/day, po administered 24 hrs post infection for 4 days.
Assay [11] concerns Rhizopus arrhizus. Briefly: Antifungal activity against Rhizopus oryzae 99-880 infected in diabetic ketoacidotic mouse assessed as reduction of fungal burden in kidneys at 60 mg/kg/day, po administered 8 hrs post infection for 3 days. The following applies: Kidney.

Active and inactive are the calls of the source. No cut-off for these calls is given here.

For the compound `CC[C@@H]([C@H](C)O)n1ncn(-c2ccc(N3CCN(c4ccc(OC[C@@H]5CO[C@@](Cn6cncn6)(c6ccc(F)cc6F)C5)cc4)CC3)cc2)c1=O`, the outcome in [1], in assay [3], in [4], in assay [5], in assay [6] and in assay [7] was inactive. Besides, the result in assay [8], in assay [9], in assay [10] and in assay [11] was inactive. For the same compound, in assay [2], the result was Active.

The record behind these values is ChEMBL document CHEMBL1629570, “Posaconazole mono- or combination therapy for treatment of murine zygomycosis” (Antimicrob Agents Chemother, 2009).
